According to PMC8205603, “Simultaneous Quantification of Pioglitazone and Omarigliptin in Rat Plasma by UHPLC-MS/MS and Its Application to Pharmacokinetic Study after Coadministration of the Two Drugs” (Journal of Analytical Methods in Chemistry, 2021):
Structures can show the parent of a compound that is named as a salt. Where two headings read alike, the source gives them in different places.

Assays:
[1] = Stability of QC samples in rat plasma under different storage conditions; assay type: physicochemical; details: n = 5
Procedure: Different concentrations of working solutions were diluted 20 times with blank rat plasma to prepare corresponding calibration samples. Final concentrations of calibration samples were 5, 25, 50, 100, 250, 500, 1000, and 2000 ng/mL for pioglitazone and 10, 50, 100, 200, 500, 1000, 2000, and 4000 ng/mL for omarigliptin. Quality control (QC) samples (5, 15, 400, 1500 ng/mL for pioglitazone and 10, 30, 800, 3000 ng/mL for omarigliptin) were prepared as the same way. All plasma samples were stored at −20°C until analysis.
QC samples with low, medium, and high concentrations were analyzed under different conditions, such as kept at room temperature for 6 h, frozen and thawed for three cycles, and frozen at −20°C for 7 days. The postextraction samples were stored in autosampler at 10°C for 24 hours and then reinjected to evaluate the autosampler stability. The measured concentrations were calculated according to the following standard curve. RE (%) and RSD (%) should be within ±15%.

[2] = Pharmacokinetics study in rats after single or combined intragastric administration; assay type: in vivo, Sprague-Dawley rats; details: plasma, male SD rats
Procedure: Fifteen male Sprague-Dawley rats (6-8 weeks old, 190-210 g) were purchased from Jinan Pengyue Laboratory Animal Technology Co., Ltd. (Jinan, China). The animal certification number was 3707262011004044 and the production license number was SCXK (Lu) 20190003. Before the formal experiment, all rats were adaptively fed for one week at a temperature of 24 ± 2°C and a humidity of 55 ± 5% and then were randomly divided into three groups. In order to guarantee animal welfare, Animal Experiments Guidelines of Yantai Institute of Materia Medica (Yantai, China) was enforced. Pioglitazone and omarigliptin were suspended into 0.5% carboxymethyl cellulose sodium salt (CMC-Na) for intragastric administration. The dosage for rats was calculated based on the clinical dose. […] About 200 μL whole blood was collected into the heparinized tube at 0 min (pre-dose), 15 min, 30 min, 1 […], and 48 h and centrifugated immediately to collect plasma. All plasma samples were frozen at -20°C until analysis. Samples were processed and analyzed by the validated method. Data were acquired and analyzed by Xcalibur 4.1 software (Thermo Fisher Scientific, Massachusetts, USA). Pharmacokinetic parameters were calculated based on noncompartmental model using Phoenix WinNonlin 7.0 (Pharsight, Mountain View, CA). All data were shown as mean ± SD.

[3] = Auto-sampler stability (10°C for 24 h), postextraction samples, nominal 30 ng/mL omarigliptin
[4] = Auto-sampler stability (10°C for 24 h), postextraction samples, nominal 800 ng/mL omarigliptin
[5] = Auto-sampler stability (10°C for 24 h), postextraction samples, nominal 3000 ng/mL omarigliptin
[6] = Freeze (−20°C for 7 days), rat plasma, nominal 30 ng/mL omarigliptin
[7] = Freeze (−20°C for 7 days), rat plasma, nominal 800 ng/mL omarigliptin
[8] = Freeze (−20°C for 7 days), rat plasma, nominal 3000 ng/mL omarigliptin
[9] = Room temperature for 6 h, rat plasma, nominal 30 ng/mL omarigliptin
[10] = Room temperature for 6 h, rat plasma, nominal 800 ng/mL omarigliptin
[11] = Room temperature for 6 h, rat plasma, nominal 3000 ng/mL omarigliptin
[12] = Three freeze-thaw cycles, rat plasma, nominal 30 ng/mL omarigliptin
[13] = Three freeze-thaw cycles, rat plasma, nominal 800 ng/mL omarigliptin
[14] = Three freeze-thaw cycles, rat plasma, nominal 3000 ng/mL omarigliptin
[15] = male, Sprague-Dawley, rat, po, 2.6 mg/kg, omarigliptin 2.6 mg/kg in combination with pioglitazone 2.6 mg/kg, intragastric, n = 5
[16] = male, Sprague-Dawley, rat, po, 2.6 mg/kg, omarigliptin 2.6 mg/kg intragastric, single administration, n = 5
[17] = Auto-sampler stability (10°C for 24 h), postextraction samples, nominal 15 ng/mL pioglitazone
[18] = Auto-sampler stability (10°C for 24 h), postextraction samples, nominal 400 ng/mL pioglitazone
[19] = Auto-sampler stability (10°C for 24 h), postextraction samples, nominal 1500 ng/mL pioglitazone
[20] = Freeze (−20°C for 7 days), rat plasma, nominal 15 ng/mL pioglitazone
[21] = Freeze (−20°C for 7 days), rat plasma, nominal 400 ng/mL pioglitazone
[22] = Room temperature for 6 h, rat plasma, nominal 15 ng/mL pioglitazone
[23] = Room temperature for 6 h, rat plasma, nominal 400 ng/mL pioglitazone
[24] = Room temperature for 6 h, rat plasma, nominal 1500 ng/mL pioglitazone
[25] = Three freeze-thaw cycles, rat plasma, nominal 15 ng/mL pioglitazone
[26] = Three freeze-thaw cycles, rat plasma, nominal 400 ng/mL pioglitazone
[27] = Three freeze-thaw cycles, rat plasma, nominal 1500 ng/mL pioglitazone
[28] = male, Sprague-Dawley, rat, po, 2.6 mg/kg, pioglitazone 2.6 mg/kg in combination with omarigliptin 2.6 mg/kg, intragastric, n = 5
[29] = male, Sprague-Dawley, rat, po, 2.6 mg/kg, pioglitazone 2.6 mg/kg intragastric, single administration, n = 5

## CS(=O)(=O)n1cc2c(n1)CN([C@H]1CO[C@H](c3cc(F)ccc3F)[C@@H](N)C1)C2 [Omarigliptin]
[1]; [3]
  Accuracy (RE %): 6.70%
  Measured concentrations: 32.01 ± 2.13 ng/mL
[1]; [4]
  Accuracy (RE %): −4.69%
  Measured concentrations: 762.47 ± 4.84 ng/mL
[1]; [5]
  Accuracy (RE %): −0.09%
  Measured concentrations: 2997.38 ± 9.39 ng/mL
[1]; [6]
  Accuracy (RE %): −4.79%
  Measured concentrations: 28.56 ± 0.11 ng/mL
[1]; [7]
  Accuracy (RE %): 0.28%
  Measured concentrations: 802.26 ± 4.01 ng/mL
[1]; [8]
  Accuracy (RE %): −10.36%
  Measured concentrations: 2689.12 ± 45.57 ng/mL
[1]; [9]
  Accuracy (RE %): 0.05%
  Measured concentrations: 30.01 ± 0.40 ng/mL
[1]; [10]
  Accuracy (RE %): −7.74%
  Measured concentrations: 738.06 ± 4.52 ng/mL
[1]; [11]
  Accuracy (RE %): −2.07%
  Measured concentrations: 2937.89 ± 7.68 ng/mL
[1]; [12]
  Accuracy (RE %): −5.13%
  Measured concentrations: 28.46 ± 0.25 ng/mL
[1]; [13]
  Accuracy (RE %): −0.68%
  Measured concentrations: 794.54 ± 9.37 ng/mL
[1]; [14]
  Accuracy (RE %): −10.98%
  Measured concentrations: 2670.56 ± 16.54 ng/mL
[2]; [15]
  AUC(0-inf): 31300 ± 3820 ng·h/mL
  AUC(0-t): 30400 ± 3760 ng·h/mL
  Cmax: 2520 ± 435 ng/mL
[2]; male, Sprague-Dawley, rat, po, 2.6 mg/kg, omarigliptin 2.6 mg/kg in combination with pioglitazone 2.6 mg/kg, intragastric, n = 5, read-out: t max
  Tmax: 1.8 ± 0.4 h
[2]; [16]
  AUC(0-inf): 37700 ± 4100 ng·h/mL
  AUC(0-t): 36600 ± 4060 ng·h/mL
  Cmax: 3000 ± 394 ng/mL
[2]; male, Sprague-Dawley, rat, po, 2.6 mg/kg, omarigliptin 2.6 mg/kg intragastric, single administration, n = 5, read-out: t max
  Tmax: 1.5 ± 0.7 h
[2]; omarigliptin 2.6 mg/kg intragastric, single administration, n = 5
  t 1/2: 10.9 ± 0.5 h

## CCc1ccc(CCOc2ccc(CC3SC(=O)NC3=O)cc2)nc1 (stereo not drawn) [Pioglitazone, Pioglitazone hydrochloride]
[1]; [17]
  Accuracy (RE %): 3.95%
  Measured concentrations: 15.59 ± 1.05 ng/mL
[1]; [18]
  Accuracy (RE %): −9.17%
  Measured concentrations: 363.31 ± 1.73 ng/mL
[1]; [19]
  Accuracy (RE %): −5.24%
  Measured concentrations: 1421.47 ± 7.30 ng/mL
[1]; [20]
  Accuracy (RE %): −8.77%
  Measured concentrations: 13.68 ± 0.10 ng/mL
[1]; [21]
  Accuracy (RE %): 0.24%
  Measured concentrations: 400.95 ± 1.64 ng/mL
[1]; Freeze (−20°C for 7 days), rat plasma, nominal 1500 ng/mL pioglitazone
  Measured concentrations: 1328.31 ± 5.99 ng/mL
[1]; [22]
  Accuracy (RE %): −4.62%
  Measured concentrations: 14.31 ± 0.34 ng/mL
[1]; [23]
  Accuracy (RE %): −9.56%
  Measured concentrations: 361.75 ± 1.91 ng/mL
[1]; [24]
  Accuracy (RE %): −5.41%
  Measured concentrations: 1418.82 ± 5.26 ng/mL
[1]; [25]
  Accuracy (RE %): −8.12%
  Measured concentrations: 13.78 ± 0.11 ng/mL
[1]; [26]
  Accuracy (RE %): 0.52%
  Measured concentrations: 402.08 ± 1.11 ng/mL
[1]; [27]
  Accuracy (RE %): −11.10%
  Measured concentrations: 1333.57 ± 7.61 ng/mL
[2]; [28]
  AUC(0-inf): 19000 ± 2600 ng·h/mL
  AUC(0-t): 19000 ± 2580 ng·h/mL
  Cmax: 2460 ± 754 ng/mL
  half-life: 126 ± 12 min
[2]; [29]
  AUC(0-inf): 17000 ± 2130 ng·h/mL
  AUC(0-t): 16900 ± 2210 ng·h/mL
  Cmax: 2550 ± 475 ng/mL
  half-life: 168 ± 60 min
[2]; male, Sprague-Dawley, rat, po, 2.6 mg/kg, pioglitazone 2.6 mg/kg intragastric, single administration, n = 5, read-out: t max
  Tmax: 1.8 ± 0.4 h
[2]; pioglitazone 2.6 mg/kg in combination with omarigliptin 2.6 mg/kg, intragastric, n = 5
  Tmax: 2.0 ± 0 h
